Measured values as given in publication PMC12040169 (PLOS Biology, 2025).

Tests used:
[1] = in vitro; set-up: Viability of infected HeLa host cells, resazurin conversion, bulk resorufin fluorescence relative to DMSO; conditions: human, hela cells; bulk resorufin, mean of 2
[2] = tested on: T1, CTL2-GFP (C. trachomatis L2/434/Bu, GFP-expressing); test: microbe, parasite or virus in culture; set-up: Intracellular C. trachomatis growth in HeLa cells, bulk GFP fluorescence relative to DMSO; conditions: Chlamydia trachomatis, HeLa, 28.5 h; bulk GFP, mean of 2; read-out: % of control remaining
T1 construct: L2/434/Bu, GFP-expressing
Method: MICs were calculated as described above.

[3] = tested on: T2, C. trachomatis L2/434/Bu expressing GFP (CTL2-GFP); test: microbe, parasite or virus in culture; set-up: C. trachomatis total inclusion area by high-content imaging, normalised to DMSO; conditions: Chlamydia trachomatis, HeLa, 28.5 h; total inclusion area; read-out: % of control remaining
T2 construct: L2/434/Bu GFP intracellular growth in HeLa cells
Excerpt: We screened a library of 36,785 small molecules displaying drug-like properties and covering a wide chemical space (Fig 1A and S2A Data). In this process, we also complemented the assay described above with an imaging-based readout (Fig 1B). After measurements of bulk GFP and resorufin fluorescence, cells were fixed, stained with the DNA dye Hoechst, and imaged at a high-content imaging platform to detect chlamydial inclusions (GFP) and host cell nuclei (Hoechst). The total area and number of inclusions in individual wells and the number of nuclei then served as additional proxies for chlamydial growth and host cell viability. […] MICs were calculated as described above.

Compound	viability at 28.5 h, 1 µM [1]	viability at 28.5 h, 5 µM [1]	viability at 28.5 h, 10 µM [1]	activity at 1 µM [2]	activity at 5 µM [2]	activity at 10 µM [2]	activity at 1 µM [3]	activity at 5 µM [3]	activity at 10 µM [3]
CCC(=O)N1CCCc2cc(C(O)CN3CCN(c4ccc(F)cc4)CC3)ccc21 (stereo not drawn) [CBK286480]	93%	84%	90.3%	116%	62%	10.5%	104%	58.2%	7.99%
Oc1ccc(Cn2cnc3ccccc32)c2cccnc12 [CBK291202]	105%	104%	96%	103%	47.1%	19.3%	116%	52.7%	24.3%
CN(C)CCCNC(=O)c1ccc([N+](=O)[O-])o1 [CBK262118]	97.2%	98.6%	104%	133%	80.5%	42.1%	104%	60.7%	34.6%
NC(Cc1ccccc1)CN(CC1(c2ccc(Cl)cc2)CC1)C(=O)Nc1ccc2c(c1)OCO2 (stereo not drawn) [CBK002342C]	95.3%	95.4%	93.5%	211%	102%	98.8%	109%	43.5%	54%
CCCN(CCC)CCc1cccc2c1CCN2C(=O)c1cc2ccccc2s1 [CBK017871C]	96.8%	96.9%	97.3%	42.3%	18.2%	9.45%	58%	26.8%	2.13%
COc1ccc2cc3c(nc2c1)OC(=O)N(CC1CC1)C3 [CBK282432]	112%	108%	110%	92.7%	19%	0.603%	90.9%	15.2%	0.584%
OC(CN1CCOCC1)Cn1c(-c2ccccc2)c(-c2ccccc2)c2ccc3ccccc3c21 (stereo not drawn) [CBK263996G]	90.5%	92.4%	89.5%	113%	96.6%	91.1%	101%	73.2%	61.6%
CC(Nc1cccc2ccccc12)C(=O)N/N=C/c1c(O)ccc2ccccc12 (stereo not drawn) [CBK262678]	90.9%	83%	74.2%	132%	74.4%	72.2%	100%	47.4%	21%
CCCCC(=O)/N=C(\N)Nc1nc2ccccc2o1 [CBK287937]	106%	102%	100%	119%	117%	117%	100%	71.1%	60.6%
Cc1cc(C)nc(NS(=O)(=O)c2ccc(Nc3ccc4nonc4c3[N+](=O)[O-])cc2)n1 [CBK261444]	92.5%	86.4%	79.7%	132%	92.2%	60.3%	130%	121%	67.5%
CC(Oc1cccc2ccccc12)C(=S)N(C)c1ccccc1 (stereo not drawn) [CBK016158]	113%	117%	107%	98.8%	81.4%	67.6%	105%	98.3%	84.8%
CC(Cc1nc(-c2nccn2C(C)C)cs1)n1cc(Cl)cn1 (stereo not drawn) [CBK304251]	90.7%	96.5%	92.9%	125%	70.4%	46.9%	109%	55.7%	28.6%
